Assay results taken from ChEMBL document CHEMBL4627246, “Pyroglutamide-Based P2X7 Receptor Antagonists Targeting Inflammatory Bowel Disease” (J Med Chem, 2020).

System: SK-MEL-2
Assay: Cytotoxicity against human SK-MEL-2 cells assessed as effect on cell growth at 10 uM incubated for 48 hrs by sulforhodamine B assay
Format: cell-based
Conditions: sk-mel-2, 48 h

Structure (SMILES)	Activity
O=C(NCc1ccc(Cl)cc1Cl)[C@@H]1COC(=O)N1c1cccs1	Non-Toxic
COc1ccc(N2C(=O)[C@@H]3C/C(=C\N(C)C)C(=O)N3C2N(C)C)cc1 (stereo not given in full)	Non-Toxic
COc1cc(CN/C=C2\C[C@@H](C(=O)NCc3ccc(Cl)cc3Cl)NC2=O)cc(OC)c1OC	Non-Toxic

System: SN12C
Assay: Cytotoxicity against human SN12C cells assessed as effect on cell growth at 10 uM incubated for 48 hrs by sulforhodamine B assay
Format: cell-based
Conditions: not given

Structure (SMILES)	Activity
O=C(NCc1ccc(Cl)cc1Cl)[C@@H]1COC(=O)N1c1cccs1	Non-Toxic
COc1ccc(N2C(=O)[C@@H]3C/C(=C\N(C)C)C(=O)N3C2N(C)C)cc1 (stereo not given in full)	Non-Toxic
COc1cc(CN/C=C2\C[C@@H](C(=O)NCc3ccc(Cl)cc3Cl)NC2=O)cc(OC)c1OC	Non-Toxic

System: MDA-MB-231
Assay: Cytotoxicity against human MDA-MB-231 cells assessed as effect on cell growth at 10 uM incubated for 48 hrs by sulforhodamine B assay
Format: cell-based
Conditions: mda-mb-231, 48 h

Structure (SMILES)	Activity
O=C(NCc1ccc(Cl)cc1Cl)[C@@H]1COC(=O)N1c1cccs1	Non-Toxic
COc1ccc(N2C(=O)[C@@H]3C/C(=C\N(C)C)C(=O)N3C2N(C)C)cc1 (stereo not given in full)	Non-Toxic
COc1cc(CN/C=C2\C[C@@H](C(=O)NCc3ccc(Cl)cc3Cl)NC2=O)cc(OC)c1OC	Non-Toxic

System: K562
Assay: Cytotoxicity against human K562 cells assessed as effect on cell growth at 10 uM incubated for 48 hrs by sulforhodamine B assay
Format: cell-based
Conditions: k562, 48 h

Structure (SMILES)	Activity
O=C(NCc1ccc(Cl)cc1Cl)[C@@H]1COC(=O)N1c1cccs1	Non-Toxic
COc1ccc(N2C(=O)[C@@H]3C/C(=C\N(C)C)C(=O)N3C2N(C)C)cc1 (stereo not given in full)	Non-Toxic
COc1cc(CN/C=C2\C[C@@H](C(=O)NCc3ccc(Cl)cc3Cl)NC2=O)cc(OC)c1OC	Non-Toxic

System: NCI-H226
Assay: Cytotoxicity against human NCI-H226 cells assessed as effect on cell growth at 10 uM incubated for 48 hrs by sulforhodamine B assay
Format: cell-based
Conditions: nci-h226, 48 h

Structure (SMILES)	Activity
O=C(NCc1ccc(Cl)cc1Cl)[C@@H]1COC(=O)N1c1cccs1	Non-Toxic
COc1ccc(N2C(=O)[C@@H]3C/C(=C\N(C)C)C(=O)N3C2N(C)C)cc1 (stereo not given in full)	Non-Toxic
COc1cc(CN/C=C2\C[C@@H](C(=O)NCc3ccc(Cl)cc3Cl)NC2=O)cc(OC)c1OC	Non-Toxic

System: RXF 393
Assay: Cytotoxicity against human RXF393 cells assessed as effect on cell growth at 10 uM incubated for 48 hrs by sulforhodamine B assay
Format: cell-based
Conditions: rxf 393, 48 h

Structure (SMILES)	Activity
O=C(NCc1ccc(Cl)cc1Cl)[C@@H]1COC(=O)N1c1cccs1	Non-Toxic
COc1ccc(N2C(=O)[C@@H]3C/C(=C\N(C)C)C(=O)N3C2N(C)C)cc1 (stereo not given in full)	Non-Toxic
COc1cc(CN/C=C2\C[C@@H](C(=O)NCc3ccc(Cl)cc3Cl)NC2=O)cc(OC)c1OC	Non-Toxic

System: MDA-MB-435
Assay: Cytotoxicity against human MDA-MB-435 cells assessed as effect on cell growth at 10 uM incubated for 48 hrs by sulforhodamine B assay
Format: cell-based
Conditions: mda-mb-435, 48 h

Structure (SMILES)	Activity
O=C(NCc1ccc(Cl)cc1Cl)[C@@H]1COC(=O)N1c1cccs1	Non-Toxic
COc1ccc(N2C(=O)[C@@H]3C/C(=C\N(C)C)C(=O)N3C2N(C)C)cc1 (stereo not given in full)	Non-Toxic
COc1cc(CN/C=C2\C[C@@H](C(=O)NCc3ccc(Cl)cc3Cl)NC2=O)cc(OC)c1OC	Non-Toxic

System: HOP-62
Assay: Cytotoxicity against human HOP62 cells assessed as effect on cell growth at 10 uM incubated for 48 hrs by sulforhodamine B assay
Format: cell-based
Conditions: hop-62, 48 h

Structure (SMILES)	Activity
O=C(NCc1ccc(Cl)cc1Cl)[C@@H]1COC(=O)N1c1cccs1	Non-Toxic
COc1ccc(N2C(=O)[C@@H]3C/C(=C\N(C)C)C(=O)N3C2N(C)C)cc1 (stereo not given in full)	Non-Toxic
COc1cc(CN/C=C2\C[C@@H](C(=O)NCc3ccc(Cl)cc3Cl)NC2=O)cc(OC)c1OC	Non-Toxic

System: SF-268
Assay: Cytotoxicity against human SF268 cells assessed as effect on cell growth at 10 uM incubated for 48 hrs by sulforhodamine B assay
Format: cell-based
Conditions: sf-268, 48 h

Structure (SMILES)	Activity
O=C(NCc1ccc(Cl)cc1Cl)[C@@H]1COC(=O)N1c1cccs1	Non-Toxic
COc1ccc(N2C(=O)[C@@H]3C/C(=C\N(C)C)C(=O)N3C2N(C)C)cc1 (stereo not given in full)	Non-Toxic
COc1cc(CN/C=C2\C[C@@H](C(=O)NCc3ccc(Cl)cc3Cl)NC2=O)cc(OC)c1OC	Non-Toxic

System: SK-MEL-28
Assay: Cytotoxicity against human SK-MEL-28 cells assessed as effect on cell growth at 10 uM incubated for 48 hrs by sulforhodamine B assay
Format: cell-based
Conditions: sk-mel-28, 48 h

Structure (SMILES)	Activity
O=C(NCc1ccc(Cl)cc1Cl)[C@@H]1COC(=O)N1c1cccs1	Non-Toxic
COc1ccc(N2C(=O)[C@@H]3C/C(=C\N(C)C)C(=O)N3C2N(C)C)cc1 (stereo not given in full)	Non-Toxic
COc1cc(CN/C=C2\C[C@@H](C(=O)NCc3ccc(Cl)cc3Cl)NC2=O)cc(OC)c1OC	Non-Toxic

System: OVCAR-4
Assay: Cytotoxicity against human OVCAR4 cells assessed as effect on cell growth at 10 uM incubated for 48 hrs by sulforhodamine B assay
Format: cell-based
Conditions: ovcar-4, 48 h

Structure (SMILES)	Activity
O=C(NCc1ccc(Cl)cc1Cl)[C@@H]1COC(=O)N1c1cccs1	Non-Toxic
COc1ccc(N2C(=O)[C@@H]3C/C(=C\N(C)C)C(=O)N3C2N(C)C)cc1 (stereo not given in full)	Non-Toxic
COc1cc(CN/C=C2\C[C@@H](C(=O)NCc3ccc(Cl)cc3Cl)NC2=O)cc(OC)c1OC	Non-Toxic

System: UACC-257
Assay: Cytotoxicity against human UACC257 cells assessed as effect on cell growth at 10 uM incubated for 48 hrs by sulforhodamine B assay
Format: cell-based
Conditions: uacc-257, 48 h

Structure (SMILES)	Activity
O=C(NCc1ccc(Cl)cc1Cl)[C@@H]1COC(=O)N1c1cccs1	Non-Toxic
COc1ccc(N2C(=O)[C@@H]3C/C(=C\N(C)C)C(=O)N3C2N(C)C)cc1 (stereo not given in full)	Non-Toxic
COc1cc(CN/C=C2\C[C@@H](C(=O)NCc3ccc(Cl)cc3Cl)NC2=O)cc(OC)c1OC	Non-Toxic

System: BT-549
Assay: Cytotoxicity against human BT549 cells assessed as effect on cell growth at 10 uM incubated for 48 hrs by sulforhodamine B assay
Format: cell-based
Conditions: bt-549, 48 h

Structure (SMILES)	Activity
O=C(NCc1ccc(Cl)cc1Cl)[C@@H]1COC(=O)N1c1cccs1	Non-Toxic
COc1ccc(N2C(=O)[C@@H]3C/C(=C\N(C)C)C(=O)N3C2N(C)C)cc1 (stereo not given in full)	Non-Toxic
COc1cc(CN/C=C2\C[C@@H](C(=O)NCc3ccc(Cl)cc3Cl)NC2=O)cc(OC)c1OC	Non-Toxic

System: OVCAR-3
Assay: Cytotoxicity against human OVCAR3 cells assessed as effect on cell growth at 10 uM incubated for 48 hrs by sulforhodamine B assay
Format: cell-based
Conditions: ovcar-3, 48 h

Structure (SMILES)	Activity
O=C(NCc1ccc(Cl)cc1Cl)[C@@H]1COC(=O)N1c1cccs1	Non-Toxic
COc1ccc(N2C(=O)[C@@H]3C/C(=C\N(C)C)C(=O)N3C2N(C)C)cc1 (stereo not given in full)	Non-Toxic
COc1cc(CN/C=C2\C[C@@H](C(=O)NCc3ccc(Cl)cc3Cl)NC2=O)cc(OC)c1OC	Non-Toxic

System: MCF7
Assay: Cytotoxicity against human MCF7 cells assessed as effect on cell growth at 10 uM incubated for 48 hrs by sulforhodamine B assay
Format: cell-based
Conditions: mcf7, 48 h

Structure (SMILES)	Activity
O=C(NCc1ccc(Cl)cc1Cl)[C@@H]1COC(=O)N1c1cccs1	Non-Toxic
COc1ccc(N2C(=O)[C@@H]3C/C(=C\N(C)C)C(=O)N3C2N(C)C)cc1 (stereo not given in full)	Non-Toxic
COc1cc(CN/C=C2\C[C@@H](C(=O)NCc3ccc(Cl)cc3Cl)NC2=O)cc(OC)c1OC	Non-Toxic

System: Hs-578T
Assay: Cytotoxicity against human Hs 578T cells assessed as effect on cell growth at 10 uM incubated for 48 hrs by sulforhodamine B assay
Format: cell-based
Conditions: not given

Structure (SMILES)	Activity
O=C(NCc1ccc(Cl)cc1Cl)[C@@H]1COC(=O)N1c1cccs1	Non-Toxic
COc1ccc(N2C(=O)[C@@H]3C/C(=C\N(C)C)C(=O)N3C2N(C)C)cc1 (stereo not given in full)	Non-Toxic
COc1cc(CN/C=C2\C[C@@H](C(=O)NCc3ccc(Cl)cc3Cl)NC2=O)cc(OC)c1OC	Non-Toxic

System: CAKI-1
Assay: Growth inhibition of human Caki1 cells assessed as growth percentage at 10 uM incubated for 48 hrs by sulforhodamine B assay
Format: cell-based
Conditions: caki-1, 48 h

Structure (SMILES)	Activity
O=C(NCc1ccc(Cl)cc1Cl)[C@@H]1COC(=O)N1c1cccs1	Non-Toxic
COc1ccc(N2C(=O)[C@@H]3C/C(=C\N(C)C)C(=O)N3C2N(C)C)cc1 (stereo not given in full)	Non-Toxic
COc1cc(CN/C=C2\C[C@@H](C(=O)NCc3ccc(Cl)cc3Cl)NC2=O)cc(OC)c1OC	Non-Toxic

System: CCRF-CEM
Assay: Cytotoxicity against human CCRF-CEM cells assessed as effect on cell growth at 10 uM incubated for 48 hrs by sulforhodamine B assay
Format: cell-based
Conditions: not given

Structure (SMILES)	Activity
O=C(NCc1ccc(Cl)cc1Cl)[C@@H]1COC(=O)N1c1cccs1	Non-Toxic
COc1ccc(N2C(=O)[C@@H]3C/C(=C\N(C)C)C(=O)N3C2N(C)C)cc1 (stereo not given in full)	Non-Toxic
COc1cc(CN/C=C2\C[C@@H](C(=O)NCc3ccc(Cl)cc3Cl)NC2=O)cc(OC)c1OC	Non-Toxic

System: SK-MEL-5
Assay: Cytotoxicity against human SK-MEL-5 cells assessed as effect on cell growth at 10 uM incubated for 48 hrs by sulforhodamine B assay
Format: cell-based
Conditions: sk-mel-5, 48 h

Structure (SMILES)	Activity
O=C(NCc1ccc(Cl)cc1Cl)[C@@H]1COC(=O)N1c1cccs1	Non-Toxic
COc1ccc(N2C(=O)[C@@H]3C/C(=C\N(C)C)C(=O)N3C2N(C)C)cc1 (stereo not given in full)	Non-Toxic
COc1cc(CN/C=C2\C[C@@H](C(=O)NCc3ccc(Cl)cc3Cl)NC2=O)cc(OC)c1OC	Non-Toxic

System: LOX IMVI
Assay: Cytotoxicity against human LOXIMVI cells assessed as effect on cell growth at 10 uM incubated for 48 hrs by sulforhodamine B assay
Format: cell-based
Conditions: not given

Structure (SMILES)	Activity
O=C(NCc1ccc(Cl)cc1Cl)[C@@H]1COC(=O)N1c1cccs1	Non-Toxic
COc1ccc(N2C(=O)[C@@H]3C/C(=C\N(C)C)C(=O)N3C2N(C)C)cc1 (stereo not given in full)	Non-Toxic
COc1cc(CN/C=C2\C[C@@H](C(=O)NCc3ccc(Cl)cc3Cl)NC2=O)cc(OC)c1OC	Non-Toxic
